# Measured values as given in article PMC6332320, “Factors Influencing Oral Bioavailability of Thai Mango Seed Kernel Extract and Its Key Phenolic Principles” (Molecules, 2015).
# How the values were obtained:
# [1] = mouse, in vivo, po, 80 mg/kg; cited from earlier work
# [2] = rat, in vivo, ip, 20 mg/kg; cited from earlier work
# Caco-2 cell lysates = experiment: Biological stability in Caco-2 cell lysates; type: in vitro ADME, human; conditions: individual compound 100 µM, HBSS pH 6, up to 24 h
# Procedure: Caco-2 cells were cultured in T75 flasks at a seeding density of 2 × 10^6 cells/flask for 12–15 days. The cell lysate was freshly prepared by washing the cells twice with ice-cold HBSS at pH 6 (12 mL). The cells were then collected by scraping and resuspending in ice-cold HBSS at pH 6 (7.5 mL/flask). The cell suspension was vortexed and sonicated in an ice water bath for 30 min to obtain the lysate, which was kept on ice until use, and its cellular protein concentration was determined using a BCA™ protein assay kit (Thermo Fisher Scientific, Rockford, IL, USA) with bovine serum albumin as a reference standard.
# Many phenolic compounds were subject to sulfation and glucuronidation by Caco-2 cells at concentrations higher than 20 μM [16, 21, 43] and the metabolites of GA, MG and PGG could not be observed in Caco-2 transport experiment. Therefore, the concentration of the standard pure compounds used in this study was higher than that used in the chemical stability experiment. After preparing the cell lysate, the test compounds were prepared by dissolution in HBSS at pH 6 and then added to the lysates for a final concentration of 1.08 mg/mL protein to obtain final individual concentrations of 100 μM for GA, MG and PGG and 0.75 mg/mL for MSKE, which is equivalent to concentrations of 55.12 ± 4.57 µM GA, 7.56 ± 0.85 µM MG and 110.02 ± 17.52 µM PGG. The mixtures were then incubated in a water bath at 37 °C for 24 h, and samples (50 µL for standard compounds, and 200 µL for MSKE) were collected at 0, 4, 6 and 24 h. Each sample was then added to an ice-cold 50% methanol (150 µL for GA, MG and PGG, and 600 µL for MSKE) to stop the reaction, vortexed and centrifuged at 15,500 rpm for 15 min, and the supernatant was injected into the UPLC for analysis.
# The chemical and biological stabilities of the phenolic compounds were expressed as the concentration of the analyte at different time points relative to the concentration of the same analyte at time zero multiplied by 100 (% recovery).
# Caco-2 cells = conditions: cited from earlier work
smiles,measurement,setting,value
"O=C(OC[C@H]1O[C@@H](OC(=O)c2cc(O)c(O)c(O)c2)[C@H](OC(=O)c2cc(O)c(O)c(O)c2)[C@@H](OC(=O)c2cc(O)c(O)c(O)c2)[C@@H]1OC(=O)c1cc(O)c(O)c(O)c1)c1cc(O)c(O)c(O)c1 [PGG, Pentagalloylglucopyranose]",plasma PGG levels,[1],below the limit of detection
same,Cmax,[2],6 µM
same,stability in HBSS at pH 6 (blank control),Caco-2 cell lysates,stable in HBSS at pH 6 for 6 h and slightly degraded within 24 h
same,Papp AB,Caco-2 cells,0.08 ± 0.03 × 10^−6 cm/s
